Laboratory results reported in patent US6777193B1, “Methods for diagnostic and/or treatment of antiphospholipids antibodies-related diseases, and devices” (Escuela Nacional de Ciencias Biologicas, del Instituto …, priority 2000, dated 2004).

Key:
H308 monoclonal antibody = assay: Inhibition of H308 monoclonal antibody by phosphorylated haptens (liposomal-ELISA); assay type: binding, mouse; conditions: 0.2 μmoles of hapten
Method: Studies on inhibition of anti-lipidic particles antibodies were carried out using liposomes as antigens and the antigen-antibody reaction was analyzed by the liposomal-ELISA method, which includes the following steps:
A) A first step of addition and incubation, in which an effective quantity of an antigen suspension is added to each one of the wells of the ELISA microtiter plate. This microtiter plate is selected among those with a high lipidic antigens binding property and said microtiter plate is incubated between 25 to 30° C. for 0.25 to 2 h.
B) A second step of addition and incubation, in which an effective quantity of a blocking solution is added to each one of the wells of the ELISA microtiter plate with a high lipidic antigens binding property, and said microtiter plate being incubated at a temperature between 25 to 30° C. for 0.25 to 2 h.
C) A step of elimination of blocking solution, preferably by suction, avoiding that microtiter plate becomes dry when blocking solution is eliminated, because liposomal antigens can be damaged.
D) A step of inhibition of the antibody porter, in which the antibody porter is incubated with a chemical substance, or hapten, that will inhibit the active site that recognizes the antigen in the antibody porter.
E) A third step of addition and incubation, in which an effective quantity of the antibody porter inhibited by the hapten was quickly added, to avoid that microtiter plate becomes dry, to each one of the wells using an antibody porter dilution from 1:5 to 1:1000 into blocking solution. This microtiter plate being incubated for 0.25 to 2 h at a temperature between 25 to 30° C.
F) A first step of washing, in which the microtiter plate is washed with the blocking solution, preferably repeating 4-times and avoiding that microtiter plate becomes dry when eliminating the blocking solution.
G) A fourth step of addition and incubation, in which an effective quantity of a second antibody is added to each one of the wells of microtiter plate. This plate is incubated in the darkness for 0.25 to 2 h at a temperature between 25 to 30° C. Second antibody is selected preferably among antibodies from a different specie to that of the antibody porter and they can be anti-Fc of human IgG, IgA and IgM or of the animal in study, or antibodies anti-Fc of IgM or of IgG depending on the nature of the monoclonal antibody when this is the antibody porter. Second antibody is used in a final dilution into blocking solution between […] and 1:3500 and it is conjugated to an enzyme preferably to peroxidase.
H) A second step of washing, in which the microtiter plate is washed with the blocking solution, preferably repeating 4-times and avoiding that microtiter plate becomes dry when eliminating the blocking solution.
I) A fifth step of addition and incubation, in which an effective quantity of the peroxidase sustrates is added to each one of the wells and this microtiter plate is incubated for 0.1 to 0.5 h at a temperature between .35 and 40° C., stopping the peroxidase reaction by adding an effective quantity of sulfuric acid.
J) A step of analysis, in which microtiter plate is analyzed using a reading device for ELISA plates, preferably at 492 nm.
In a specific embodiment, the hapten solution is obtained dissolving hapten in a buffer solution at pH between 7.0 and 7.4, in a relationship from 0.1 to 10 mmoles of hapten per liter of buffer solution.
Costar microtiter plates, with 96 flat-bottom wells with a high lipidic antigens binding property (Costar Co. Cambrige, USA) were coated by the addition to each one of the wells of 100 μl of liposomes made from egg-yolk phosphatidylcholine:phosphatidate (2:1 molar ratio) in Tris-NaCl buffer (10 mM, 1 mM) pH 7, containing 0.1 μmol of phosphatidate, and treated with 5 mM CaCl2 to induce lipidic particles formation. Microtiter plates were incubated at room temperature for 1 h and they were blocked for 1 h at room temperature in a similar way as was described in Example 1. […]

[1] = system: anti-lipidic particles antibodies from sera of patients with the antiphospholipid syndrome; assay: Hapten inhibition of anti-lipidic particles antibodies from patients' sera (liposomal-ELISA); assay type: binding, human; conditions: 0.2 μmoles hapten, 30 min at 30° C.
Method: Costar microtiter plates, with 96 flat-bottom wells with a high lipidic antigens binding property (Costar Co. Cambrige, USA) were coated by the addition to each one of the wells of 100 μl of liposomes made from egg-yolk phosphatidylcholine:phosphatidate (2:1 molar ratio) in Tris-NaCl buffer (10 mM, 1 mM) pH 7, containing 0.1 μmol of phosphatidate, and treated with 5 mM CaCl2 to induce lipidic particles formation.
Aliquots of 100 μl of patients' sera that were analyzed in Examples 1 and 2B were incubated with 100 μl of 0.2 μmoles of glycerolphosphorylcholine for 30 min at 30° C. Later on, blocked patients sera were added to the wells of the microtiter plate and the liposomal-ELISA method was applied as it was described in Example 1. Peroxidase-conjugated goat anti-Fc of human IgG, IgA and IgM antibodies were used as second antibody.

BALB/c female mice = assay: Treatment of the pathology induced by H308 monoclonal antibody in mice; assay type: in vivo, mouse
Method: H308 monoclonal antibody was administered by intraperitoneal injection of 1 μg each week during two months to BALB/c female mice, and simultaneously the glycerolphosphorylcholine hapten was administered at 2.5 mg/Kg, of body weight, doses by intravenous injection each 24 hs, for 2-months.
Spermidine was administered, as chlorhydrate, in a dose of 1 mg/Kg, of body weight, by intraperitoneal injection each 24 hs, during two months.

## C[N+](C)(C)CCOP(=O)([O-])OC[C@H](O)CO [glycerolphosphorylcholine]
H308 monoclonal antibody
  inhibition of H308 monoclonal antibody: 100%
[1]
  inhibition in the immunoreaction of patients sera with lipidic particles in liposomes: 100%
BALB/c female mice; hapten 2.5 mg/Kg intravenous each 24 hs for 2-months, H308 1 μg i.p. each week
  inhibition of the development of mice pathology by H308 monoclonal antibody: 40%
BALB/c female mice; of body weight, BALB/c female mice given H308
  therapeutically effective quantity: 2.5 mg/kg
